Data published in publication PMC6681697, “One-Step ^18F-Labeling and Preclinical Evaluation of Prostate-Specific Membrane Antigen Trifluoroborate Probes for Cancer Imaging” (Journal of Nuclear Medicine, 2019).
Read-outs that look alike come from different tables or passages of the source.

Tests used:
PSMA = biological target: T1, PSMA (Homo sapiens, UniProt Q04609); experiment: In vitro competition binding assay on LNCaP cells with ^18F-DCFPyL as radioligand
T1 construct: because it expresses PSMA endogenously and is commonly used to evaluate PSMA-targeting radiotracers; endogenous in cells; host or cells: LNCaP cells
Experimental: LNCaP cells were plated onto a 24-well poly-D-lysine coated plate for 48 h (400,000/well). […] Nonspecific binding was determined in the presence of 10 μM unlabeled DCFPyL. The assay mixtures were incubated for 1 h at 37°C with gentle agitation followed by 2 washes with cold HEPES buffered saline. A trypsin solution (0.25%, 400 μL) was then added to each well to harvest the cells. Radioactivity was measured by γ-counting, and Ki values were calculated using the “1 site—fit Ki” built-in model in Prism 7 (GraphPad).

[1] = Distribution coefficient (LogD7.4), shake flask method; format: physicochemical; settings: n-octanol / phosphate buffer 0.1 M pH 7.4; n = 3
Experimental: LogD7.4 values were measured using the shake flask method. Briefly, an aliquot of ^18F-labeled tracer was added to a vial containing 2.5 mL of n-octanol and 2.5 mL of phosphate buffer (0.1 M, pH 7.4). The mixture was vortexed for 2 min and then centrifuged at 3,000g for 10 min. A sample of the n-octanol (0.1 mL) and buffer (0.1 mL) layers was counted using a γ-counter. Values of LogD7.4 were calculated using the following equation: LogD7.4 = log10 [(counts in n-octanol phase)/(counts in buffer phase)].

LNCaP xenografts [2] = experiment: Ex vivo biodistribution and blocking studies in mice bearing LNCaP xenografts; settings: for tumor uptake compared with ^18F-DCFPyL: 1-way ANOVA, Dunnett test; for tumor uptake: LNCaP tumor
Experimental: (§1) Imaging and biodistribution experiments were performed using NODSCID IL2RγKO male mice. All experiments were conducted according to the guidelines established by the Canadian Council on Animal Care and approved by the Animal Ethics Committee of the University of British Columbia. Mice were anesthetized by inhalation with 2% isoflurane in oxygen and implanted subcutaneously with 1 × 10^7 LNCaP cells behind the left shoulder. The mice were imaged or used in biodistribution studies once the tumor reached 5–8 mm in diameter (5–6 wk).
For biodistribution and blocking studies, the mice were injected with 1–3 MBq of radiotracer. At 60 min, the mice were anesthetized with 2% isoflurane inhalation and euthanized by CO2 inhalation. Blood was withdrawn by cardiac puncture, and the organs and tissues of interest were collected, weighed, and counted using an automatic γ-counter (PerkinElmer). Uptake values were expressed as the percentage of the injected dose per gram of tissue (%ID/g).
A standard 1-way ANOVA was performed to determine whether statistically significant differences in tumor uptake occurred between radiotracers. Each radiotracer was compared with ^18F-DCFPyL using the Dunnett test (a many-to-one t test comparison). This analysis was also performed for kidney and blood activity and for tumor-to-blood and tumor-to-muscle ratios. Reported P values were adjusted for multiple comparisons. The analysis was performed using Prism 8 (GraphPad). […]
Statistical analyses were performed using GradPad prism 7. Multiple t tests were performed to compare biodistribution in unblocked and blocked mice, multiple comparisons were corrected using the Holm-Sidak method. The difference was considered statistically significant when p value was < 0.05.
Supplemental Table 1 – Complete biodistribution study for compounds [18F]1–3 […]
Tissue 1h 1h blocked 1h 1h blocked 1h 1h blocked
(%ID/g) n = 8 n = 4 n = 6 n = 4 n = 8 n = 5 […]
(1 picture or pasted object on this page, not shown here)

LNCaP xenografts [3] = experiment: PET/CT imaging of LNCaP tumor-bearing mice; format: in vivo; settings: 1 h after injection
Experimental: as §1
PET imaging experiments were conducted using an Inveon preclinical PET/CT scanner (Siemens). Compounds ^18F-1,2,3,5,7, and 8 were formulated in 10% ethanol/normal saline, whereas ^18F-4 and 6 were formulated in 10% ethanol/phosphate-buffered saline. […] For blocking controls, the mice were coinjected with DCFPyL (0.5 mg). After injection, the mice were allowed to recover and roam freely in their cage. After 50 min, the mice were sedated by 2% isoflurane inhalation and positioned in the scanner. A CT scan was performed first for localization and attenuation correction. This was followed by a 10-min static PET scan. The mice were kept warm by a heating pad during image acquisition. […]

[4] = 1 h blocked (coinjection of DCFPyL 0.5 mg)

T1 sequence (Q04609 whole entry): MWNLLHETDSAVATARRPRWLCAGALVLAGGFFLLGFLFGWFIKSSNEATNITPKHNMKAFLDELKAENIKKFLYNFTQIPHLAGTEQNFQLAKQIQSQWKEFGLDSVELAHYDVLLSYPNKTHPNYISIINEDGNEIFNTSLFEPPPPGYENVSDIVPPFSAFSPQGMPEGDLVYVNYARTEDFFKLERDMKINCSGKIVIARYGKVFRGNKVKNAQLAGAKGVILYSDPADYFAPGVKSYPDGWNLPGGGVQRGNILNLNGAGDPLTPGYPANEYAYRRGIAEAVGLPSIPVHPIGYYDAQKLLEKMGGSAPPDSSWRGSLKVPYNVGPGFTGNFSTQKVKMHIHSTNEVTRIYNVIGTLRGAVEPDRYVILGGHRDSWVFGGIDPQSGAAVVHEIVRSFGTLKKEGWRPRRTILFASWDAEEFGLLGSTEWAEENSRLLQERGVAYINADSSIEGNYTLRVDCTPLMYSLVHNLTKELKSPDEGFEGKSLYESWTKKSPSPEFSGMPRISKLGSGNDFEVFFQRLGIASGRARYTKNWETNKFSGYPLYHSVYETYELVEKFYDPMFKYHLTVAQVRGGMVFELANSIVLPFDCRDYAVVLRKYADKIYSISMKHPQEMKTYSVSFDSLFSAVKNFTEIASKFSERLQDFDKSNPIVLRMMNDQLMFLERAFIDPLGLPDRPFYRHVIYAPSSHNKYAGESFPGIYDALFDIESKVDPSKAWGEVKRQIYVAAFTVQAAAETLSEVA

For `C[N+](C)(Cc1cn(CC(=O)N[C@@H](CCC(=O)O)C(=O)NCCCC[C@H](NC(=O)[C@H](CCC(=O)O)NC(=O)Cn2cc(C[N+](C)(C)C[B-](F)(F)F)nn2)C(=O)NC[C@H]2CC[C@H](C(=O)N[C@@H](Cc3ccc4ccccc4c3)C(=O)NCCCC[C@H](NC(=O)N[C@@H](CCC(=O)O)C(=O)O)C(=O)O)CC2)nn1)C[B-](F)(F)F` [^18F-8], the Ki (PSMA; LNCaP cells, 0.1 nM ^18F-DCFPyL radioligand, 1 h at 37°C, n = 3) was 0.22 ± 0.01 nM, the LogD7.4 [1] was −3.58 ± 0.36 and the “T/B (tumor-to-blood ratio)” value (LNCaP xenografts [2]; 1 h after injection, unblocked) was 30.95 ± 7.76. The “T/K (tumor-to-kidney ratio)” value (LNCaP xenografts [2]; 1 h after injection, unblocked) was 0.14 ± 0.07, the “T/M (tumor-to-muscle ratio)” value (LNCaP xenografts [2]; 1 h after injection, unblocked) was 67.23 ± 25.93 and the adrenal uptake (LNCaP xenografts [2]; 1 h after injection, unblocked) was 7.72 ± 2.70 %ID/g. It also gave a blood uptake (LNCaP xenografts [2]; 1 h after injection, unblocked) of 0.56 ± 0.11 %ID/g, a bone uptake (LNCaP xenografts [2]; 1 h after injection, unblocked) of 0.25 ± 0.10 %ID/g and a brain uptake (LNCaP xenografts [2]; 1 h after injection, unblocked) of 0.02 ± 0.00 %ID/g. It also gave a fat uptake (LNCaP xenografts [2]; 1 h after injection, unblocked) of 0.80 ± 0.28 %ID/g, a heart uptake (LNCaP xenografts [2]; 1 h after injection, unblocked) of 0.28 ± 0.07 %ID/g and an intestine uptake (LNCaP xenografts [2]; 1 h after injection, unblocked) of 0.32 ± 0.06 %ID/g. It also gave a kidney uptake (LNCaP xenografts [2]; 1 h after injection, unblocked) of 143.85 ± 61.73 %ID/g, a liver uptake (LNCaP xenografts [2]; 1 h after injection, unblocked) of 0.20 ± 0.05 %ID/g and a lung uptake (LNCaP xenografts [2]; 1 h after injection, unblocked) of 1.97 ± 0.34 %ID/g. For the same compound, the muscle uptake (LNCaP xenografts [2]; 1 h after injection, unblocked) was 0.27 ± 0.06 %ID/g, the pancreas uptake (LNCaP xenografts [2]; 1 h after injection, unblocked) was 0.46 ± 0.15 %ID/g and the spleen uptake (LNCaP xenografts [2]; 1 h after injection, unblocked) was 6.47 ± 2.17 %ID/g. For the same compound, the stomach uptake (LNCaP xenografts [2]; 1 h after injection, unblocked) was 0.11 ± 0.03 %ID/g, the testes uptake (LNCaP xenografts [2]; 1 h after injection, unblocked) was 0.57 ± 0.12 %ID/g and the “tumor uptake compared with ^18F-DCFPyL” value (LNCaP xenografts [2]; 1 h after injection) was “higher uptake”. The “T/B (tumor-to-blood ratio)” value (LNCaP xenografts [2]; [4]) was 0.92 ± 0.24, the “T/K (tumor-to-kidney ratio)” value (LNCaP xenografts [2]; [4]) was 0.17 ± 0.04 and the “T/M (tumor-to-muscle ratio)” value (LNCaP xenografts [2]; [4]) was 3.07 ± 0.92. It also gave an adrenal uptake (LNCaP xenografts [2]; [4]) of 0.14 ± 0.03 %ID/g, a blood uptake (LNCaP xenografts [2]; [4]) of 0.39 ± 0.07 %ID/g and a bone uptake (LNCaP xenografts [2]; [4]) of 0.15 ± 0.02 %ID/g. For the same compound, the brain uptake (LNCaP xenografts [2]; [4]) was 0.01 ± 0.00 %ID/g, the fat uptake (LNCaP xenografts [2]; [4]) was 0.06 ± 0.02 %ID/g and the heart uptake (LNCaP xenografts [2]; [4]) was 0.13 ± 0.01 %ID/g. It also gave an intestine uptake (LNCaP xenografts [2]; [4]) of 0.26 ± 0.05 %ID/g, a kidney uptake (LNCaP xenografts [2]; [4]) of 2.19 ± 0.44 %ID/g and a liver uptake (LNCaP xenografts [2]; [4]) of 0.16 ± 0.04 %ID/g. For the same compound, the lung uptake (LNCaP xenografts [2]; [4]) was 0.33 ± 0.06 %ID/g, the muscle uptake (LNCaP xenografts [2]; [4]) was 0.13 ± 0.06 %ID/g and the pancreas uptake (LNCaP xenografts [2]; [4]) was 0.09 ± 0.03 %ID/g. The spleen uptake (LNCaP xenografts [2]; [4]) was 0.12 ± 0.04 %ID/g, the stomach uptake (LNCaP xenografts [2]; [4]) was 0.09 ± 0.04 %ID/g and the testes uptake (LNCaP xenografts [2]; [4]) was 0.18 ± 0.09 %ID/g. The tumor uptake (LNCaP xenografts [2]; 1 h after injection, unblocked, listed as 8) was 16.7 ± 2.7 %ID/g, the tumor uptake (LNCaP xenografts [2]; 1 h after injection, unblocked, listed as [18F]8) was 16.66 ± 2.74 %ID/g and the tumor uptake (LNCaP xenografts [2]; [4]) was 0.35 ± 0.03 %ID/g. The “accumulation in the liver” value (LNCaP xenografts [3]; PET/CT) was “no significant accumulation in the liver” and the “clearance / excretion pathway” value (LNCaP xenografts [3]; imaging and biodistribution) was “no hepatobiliary excretion”.

For `O=C(O)CC[C@H](NC(=O)N[C@@H](CCCCNC(=O)[C@H](Cc1ccc2ccccc2c1)NC(=O)[C@H]1CC[C@H](CNC(=O)Cn2cc(C[n+]3ccc([B-](F)(F)F)cc3)nn2)CC1)C(=O)O)C(=O)O` [^18F-6], the Ki (PSMA) was 1.9 ± 0.68 nM, the LogD7.4 [1] was “most lipophilic compound of the series” and the logD at 2 min [1] was -2.28 ± 0.01. The “intestinal activity compared with ^18F-DCFPyL” value (LNCaP xenografts [2]; 1 h after injection) was “significantly higher intestinal activity than ^18F-DCFPyL”, the “T/B (tumor-to-blood ratio)” value (LNCaP xenografts [2]; 1 h after injection, unblocked) was 19.80 ± 7.23 and the “T/K (tumor-to-kidney ratio)” value (LNCaP xenografts [2]; 1 h after injection, unblocked) was 0.14 ± 0.02. The “T/M (tumor-to-muscle ratio)” value (LNCaP xenografts [2]; 1 h after injection, unblocked) was 72.20 ± 13.46, the adrenal uptake (LNCaP xenografts [2]; 1 h after injection, unblocked) was 2.14 ± 0.61 %ID/g and the blood uptake (LNCaP xenografts [2]; 1 h after injection, unblocked) was 0.68 ± 0.26 %ID/g. The bone uptake (LNCaP xenografts [2]; 1 h after injection, unblocked) was 0.56 ± 0.14 %ID/g, the brain uptake (LNCaP xenografts [2]; 1 h after injection, unblocked) was 0.03 ± 0.01 %ID/g and the fat uptake (LNCaP xenografts [2]; 1 h after injection, unblocked) was 0.38 ± 0.14 %ID/g. For the same compound, the heart uptake (LNCaP xenografts [2]; 1 h after injection, unblocked) was 0.22 ± 0.03 %ID/g, the intestine uptake (LNCaP xenografts [2]; 1 h after injection, unblocked) was 23.05 ± 4.39 %ID/g and the kidney uptake (LNCaP xenografts [2]; 1 h after injection, unblocked) was 83.22 ± 6.07 %ID/g. It also gave a liver uptake (LNCaP xenografts [2]; 1 h after injection, unblocked) of 0.98 ± 0.22 %ID/g, a lung uptake (LNCaP xenografts [2]; 1 h after injection, unblocked) of 1.05 ± 0.14 %ID/g and a muscle uptake (LNCaP xenografts [2]; 1 h after injection, unblocked) of 0.17 ± 0.02 %ID/g. For the same compound, the pancreas uptake (LNCaP xenografts [2]; 1 h after injection, unblocked) was 0.26 ± 0.06 %ID/g, the spleen uptake (LNCaP xenografts [2]; 1 h after injection, unblocked) was 1.77 ± 0.70 %ID/g and the stomach uptake (LNCaP xenografts [2]; 1 h after injection, unblocked) was 1.17 ± 1.35 %ID/g. The testes uptake (LNCaP xenografts [2]; 1 h after injection, unblocked) was 0.33 ± 0.05 %ID/g, the “tumor uptake compared with ^18F-DCFPyL” value (LNCaP xenografts [2]; 1 h after injection) was “No statistically significant differences” and the “T/B (tumor-to-blood ratio)” value (LNCaP xenografts [2]; [4]) was 0.72 ± 0.43. For the same compound, the “T/K (tumor-to-kidney ratio)” value (LNCaP xenografts [2]; [4]) was 0.29 ± 0.07, the “T/M (tumor-to-muscle ratio)” value (LNCaP xenografts [2]; [4]) was 3.78 ± 0.17 and the adrenal uptake (LNCaP xenografts [2]; [4]) was 0.20 ± 0.04 %ID/g. The blood uptake (LNCaP xenografts [2]; [4]) was 1.64 ± 2.58 %ID/g, the bone uptake (LNCaP xenografts [2]; [4]) was 0.57 ± 0.37 %ID/g and the brain uptake (LNCaP xenografts [2]; [4]) was 0.03 ± 0.03 %ID/g. For the same compound, the fat uptake (LNCaP xenografts [2]; [4]) was 0.06 ± 0.02 %ID/g, the heart uptake (LNCaP xenografts [2]; [4]) was 0.17 ± 0.07 %ID/g and the intestine uptake (LNCaP xenografts [2]; [4]) was 24.50 ± 4.86 %ID/g. It also gave a kidney uptake (LNCaP xenografts [2]; [4]) of 1.30 ± 0.25 %ID/g, a liver uptake (LNCaP xenografts [2]; [4]) of 0.87 ± 0.17 %ID/g and a lung uptake (LNCaP xenografts [2]; [4]) of 0.43 ± 0.23 %ID/g. It also gave a muscle uptake (LNCaP xenografts [2]; [4]) of 0.10 ± 0.02 %ID/g, a pancreas uptake (LNCaP xenografts [2]; [4]) of 0.16 ± 0.14 %ID/g and a spleen uptake (LNCaP xenografts [2]; [4]) of 0.18 ± 0.10 %ID/g. It also gave a stomach uptake (LNCaP xenografts [2]; [4]) of 0.88 ± 0.41 %ID/g, a testes uptake (LNCaP xenografts [2]; [4]) of 0.14 ± 0.04 %ID/g and a tumor uptake (LNCaP xenografts [2]; 1 h after injection, unblocked, listed as 6) of 11.9 ± 2.3 %ID/g. The tumor uptake (LNCaP xenografts [2]; 1 h after injection, unblocked, listed as [18F]6) was 11.94 ± 2.29 %ID/g and the tumor uptake (LNCaP xenografts [2]; [4]) was 0.37 ± 0.10 %ID/g.
